Assay results as given in publication PMC7093416, “Selective USP7 inhibition elicits cancer cell killing through a p53-dependent mechanism” (Scientific Reports, 2020).

Tested on: panel of 484 cancer cell lines
Experiment: PRISM cancer cell line profiling, 5 days
Format: cell-based
Design: AUC: unit not given beside the values
Protocol: Cancer cell line profiling was performed using the Broad’s PRISM platform. Cell treatment and data analysis were performed as described in Yu et al[42]. Raw Luminex signal was converted to AUC values for each cell line as described. The resulting AUC profile for each compound was modeled against DepMap using the limma package in R[71]. Because hotspot mutation analysis was performed against DepMap, TP53 annotations in Fig. 6c,d are directly from DepMap.

CN1CCN(CCC(=O)Nc2ccc3c(=O)n(CC4(O)CCN(C(=O)[C@@H](CCCNC(=O)c5ccc6c(Cl)c7c(nc6c5)CCCC7)Cc5ccccc5)CC4)cnc3c2)CC1 [XL177A]
AUC (RVH421_SKIN): 0.7933
AUC (S117_SOFT_TISSUE): 0.8952
AUC (SBC5_LUNG): 1.121
AUC (SCABER_URINARY_TRACT): 0.8461
AUC (SCC25_UPPER_AERODIGESTIVE_TRACT): 0.7649
AUC (SF126_CENTRAL_NERVOUS_SYSTEM): 1.059
AUC (SF295_CENTRAL_NERVOUS_SYSTEM): 1.367
AUC (SF539_CENTRAL_NERVOUS_SYSTEM): 0.7901
AUC (SH4_SKIN): 0.8355
AUC (SH10TC_STOMACH): 0.9409
AUC (SIMA_AUTONOMIC_GANGLIA): 1.153
AUC (SJSA1_BONE): 0.9454
AUC (SKES1_BONE): 1.123
AUC (SKHEP1_LIVER): 1.003
AUC (SKLU1_LUNG): 1.145
AUC (SKMEL2_SKIN): 1.16
AUC (SKMEL3_SKIN): 1.119
AUC (SKMEL5_SKIN): 1.147
AUC (SKMEL24_SKIN): 1.297
AUC (SKMEL30_SKIN): 0.992
AUC (SKMES1_LUNG): 0.9519
AUC (SKNAS_AUTONOMIC_GANGLIA): 1.0969
AUC (SKNBE2_AUTONOMIC_GANGLIA): 1.099
AUC (SKOV3_OVARY): 0.9025
AUC (SKUT1_SOFT_TISSUE): 1.15
AUC (SNB75_CENTRAL_NERVOUS_SYSTEM): 0.9344
AUC (SNGM_ENDOMETRIUM): 1.144
AUC (SNU46_UPPER_AERODIGESTIVE_TRACT): 1.075
AUC (SNU61_LARGE_INTESTINE): 1.293
AUC (SNU81_LARGE_INTESTINE): 1.343
AUC (SNU213_PANCREAS): 0.7501
AUC (SNU245_BILIARY_TRACT): 1.4902
AUC (SNU308_BILIARY_TRACT): 1.159
AUC (SNU398_LIVER): 0.9557
AUC (SNU407_LARGE_INTESTINE): 0.9921
AUC (SNU410_PANCREAS): 1.104
AUC (SNU423_LIVER): 0.9049
AUC (SNU449_LIVER): 1.072
AUC (SNU466_CENTRAL_NERVOUS_SYSTEM): 0.6104
AUC (SNU601_STOMACH): 1.062
AUC (SNU668_STOMACH): 0.8134
AUC (SNU685_ENDOMETRIUM): 0.8198
AUC (SNU719_STOMACH): 0.6005
AUC (SNU738_CENTRAL_NERVOUS_SYSTEM): 0.9451
AUC (SNU761_LIVER): 1.358
AUC (SNU840_OVARY): 0.9553
AUC (SNU869_BILIARY_TRACT): 1.237
AUC (SNU886_LIVER): 1.085
AUC (SNU1041_UPPER_AERODIGESTIVE_TRACT): 1.036
AUC (SNU1066_UPPER_AERODIGESTIVE_TRACT): 1.434
AUC (SNU1076_UPPER_AERODIGESTIVE_TRACT): 1.032
AUC (SNU1077_ENDOMETRIUM): 1.075
AUC (SNU1079_BILIARY_TRACT): 1.101
AUC (SNU1105_CENTRAL_NERVOUS_SYSTEM): 1.015
AUC (SNU1196_BILIARY_TRACT): 1.095
AUC (SNU1214_UPPER_AERODIGESTIVE_TRACT): 0.7181
AUC (SNUC2A_LARGE_INTESTINE): 1.088
AUC (SNUC4_LARGE_INTESTINE): 1.036
AUC (SNUC5_LARGE_INTESTINE): 1.147
AUC (SQ1_LUNG): 0.9875
AUC (SUIT2_PANCREAS): 0.9816
AUC (SW480_LARGE_INTESTINE): 1.095
AUC (SW579_THYROID): 0.8837
AUC (SW620_LARGE_INTESTINE): 1.161
AUC (SW780_URINARY_TRACT): 0.8743
AUC (SW837_LARGE_INTESTINE): 1.139
AUC (SW900_LUNG): 1.083
AUC (SW948_LARGE_INTESTINE): 1.148
AUC (SW1088_CENTRAL_NERVOUS_SYSTEM): 1.163
AUC (SW1271_LUNG): 1.0015
AUC (SW1353_BONE): 0.7826
AUC (SW1573_LUNG): 1.097
AUC (SW1710_URINARY_TRACT): 0.9553
AUC (SW1990_PANCREAS): 0.9791
AUC (T3M10_LUNG): 1.003
AUC (T24_URINARY_TRACT): 1.033
AUC (T47D_BREAST): 1.05
AUC (T98G_CENTRAL_NERVOUS_SYSTEM): 0.9138
AUC (TCCPAN2_PANCREAS): 1.167
AUC (TCCSUP_URINARY_TRACT): 1.301
AUC (TE1_OESOPHAGUS): 1.2696
AUC (TE4_OESOPHAGUS): 1.044
AUC (TE5_OESOPHAGUS): 0.9519
AUC (TE6_OESOPHAGUS): 0.8165
AUC (TE8_OESOPHAGUS): 1.003
AUC (TE9_OESOPHAGUS): 1.141
AUC (TE10_OESOPHAGUS): 0.9335
AUC (TE11_OESOPHAGUS): 1.05
AUC (TEN_ENDOMETRIUM): 0.8216
AUC (TM31_CENTRAL_NERVOUS_SYSTEM): 1.2102
AUC (TM87_SOFT_TISSUE): 1.188
AUC (TOV21G_OVARY): 0.5189
AUC (TOV112D_OVARY): 1.085
mean diff. between TP53 functional WT and functional mutant populations (AUC) (TP53 annotation by functional scores of Giacomelli et al.): 0.072 ± 0.016
AUC (TT2609C02_THYROID): 0.9464
AUC (TT_OESOPHAGUS): 1.06
AUC (TT_THYROID): 0.8609
AUC (TUHR4TKB_KIDNEY): 1.102
AUC (U2OS_BONE): 1.296
AUC (U118MG_CENTRAL_NERVOUS_SYSTEM): 1.069
AUC (U251MG_CENTRAL_NERVOUS_SYSTEM): 0.9403
AUC (UACC62_SKIN): 0.9957
AUC (UACC257_SKIN): 0.801
AUC (UBLC1_URINARY_TRACT): 0.854
AUC (UMUC1_URINARY_TRACT): 0.8933
AUC (UO31_KIDNEY): 1.106
AUC (VMCUB1_URINARY_TRACT): 0.9786
AUC (VMRCRCW_KIDNEY): 1.013
AUC (VMRCRCZ_KIDNEY): 1.099
AUC (WM88_SKIN): 1.176
AUC (WM793_SKIN): 1.125
AUC (WM983B_SKIN): 1.093
AUC (WM1799_SKIN): 0.5219
AUC (WM2664_SKIN): 0.9262
AUC (YAPC_PANCREAS): 1.218
AUC (YD8_UPPER_AERODIGESTIVE_TRACT): 0.881
AUC (YD10B_UPPER_AERODIGESTIVE_TRACT): 0.9499
AUC (YD15_SALIVARY_GLAND): 0.7713
AUC (YD38_UPPER_AERODIGESTIVE_TRACT): 0.8781
AUC (YH13_CENTRAL_NERVOUS_SYSTEM): 0.9484
AUC (YKG1_CENTRAL_NERVOUS_SYSTEM): 0.9563
AUC (ZR751_BREAST): 0.7595
